Measurements: US20230293517A1, “ANTAGONIST COMPOUNDS” (AdoRx Therapeutics Limited, priority 2020, published 2023)

Experiments:
[1] = biological target: human Adenosine A1 receptor (Homo sapiens (Human), UniProt P30542); assay: Adenosine receptor TR-FRET binding assay (A1); conditions: inhibition of binding of 100 nM CA200645, CHO cell membranes
In short: (§1)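 Compounds were serially diluted 1:3 in DMSO, then incubated with CHO membranes bearing Tb-tagged human receptor plus CA200645 (A2b 30 nM; A1, A2a, A3 100 nM) for 2 h at room temperature. Time-resolved FRET was read, non-specific binding subtracted using 10 μM XAC, and Ki calculated.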

[2] = biological target: human Adenosine A2a receptor (Homo sapiens (Human), UniProt P29274); assay: Adenosine receptor TR-FRET binding assay (A2a); conditions: inhibition of binding of 100 nM CA200645, CHO cell membranes
Chain of human Adenosine A2a receptor (P29274 whole entry): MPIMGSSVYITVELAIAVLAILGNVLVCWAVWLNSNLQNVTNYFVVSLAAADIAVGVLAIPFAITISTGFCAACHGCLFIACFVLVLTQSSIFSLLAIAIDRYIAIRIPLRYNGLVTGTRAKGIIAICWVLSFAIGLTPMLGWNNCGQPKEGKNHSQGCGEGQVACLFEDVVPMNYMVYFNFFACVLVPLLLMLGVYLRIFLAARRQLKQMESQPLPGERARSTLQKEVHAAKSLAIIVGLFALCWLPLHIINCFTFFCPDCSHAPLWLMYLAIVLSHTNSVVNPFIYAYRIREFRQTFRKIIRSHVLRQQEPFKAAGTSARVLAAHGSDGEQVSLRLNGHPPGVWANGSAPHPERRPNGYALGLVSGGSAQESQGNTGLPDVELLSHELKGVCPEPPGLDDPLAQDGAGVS
In short: as §1

[3] = biological target: human Adenosine A2b receptor (Homo sapiens (Human), UniProt P29275); assay: Adenosine receptor TR-FRET binding assay (A2b); conditions: TR-FRET, inhibition of binding of 30 nM CA200645, CHO cell membranes
Chain of human Adenosine A2b receptor (P29275 whole entry): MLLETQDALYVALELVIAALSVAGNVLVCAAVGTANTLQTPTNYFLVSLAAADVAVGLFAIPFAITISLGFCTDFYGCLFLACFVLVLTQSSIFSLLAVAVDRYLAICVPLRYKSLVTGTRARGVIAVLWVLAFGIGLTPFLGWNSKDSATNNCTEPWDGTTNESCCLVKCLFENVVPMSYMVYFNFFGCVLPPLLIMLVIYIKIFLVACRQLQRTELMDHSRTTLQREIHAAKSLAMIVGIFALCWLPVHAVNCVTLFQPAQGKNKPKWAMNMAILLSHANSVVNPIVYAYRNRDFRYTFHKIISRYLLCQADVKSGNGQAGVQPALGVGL
In short: as §1

[4] = biological target: human Adenosine A3 receptor (Homo sapiens (Human), UniProt P0DMS8); assay: Adenosine receptor TR-FRET binding assay (A3); conditions: inhibition of binding of 100 nM CA200645, CHO cell membranes
Chain of human Adenosine A3 receptor (P0DMS8 whole entry): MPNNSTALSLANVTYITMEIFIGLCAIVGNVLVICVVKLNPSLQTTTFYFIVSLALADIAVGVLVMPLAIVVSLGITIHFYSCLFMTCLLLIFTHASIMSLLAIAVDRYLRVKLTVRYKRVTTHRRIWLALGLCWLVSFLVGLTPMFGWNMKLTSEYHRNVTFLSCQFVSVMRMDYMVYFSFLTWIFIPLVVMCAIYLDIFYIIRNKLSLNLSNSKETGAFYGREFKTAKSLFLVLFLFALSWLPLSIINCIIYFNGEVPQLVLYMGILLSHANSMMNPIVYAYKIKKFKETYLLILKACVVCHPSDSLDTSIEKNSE
In short: as §1

[5] = system: human PBMCs; assay: CD3/CD28 stimulated IL-2 release NECA reversal assay in human PBMCs; type: cell-based; conditions: PBMC, 1 uM NECA, 24 hours, IL-2 in culture supernatant
In short: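 PBMCs from citrated healthy-donor blood plated at 50,000 cells/well on 1 ug/ml CD3 antibody with 1 ug/ml CD28 antibody, 1 uM NECA and 0.003-10 μM antagonist (final), 24 h at 37° C. Supernatant IL-2 measured by MSD immunoassay; % inhibition set against no-NECA control wells as 100%.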

[6] = system: CD8+T cells in human whole blood; assay: Measurement of pCREB in CD8+T cells in human whole blood; type: cell-based; conditions: 3 μM NECA, rolipram
In short: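 Heparinised human whole blood pre-incubated 20 min at 37 °C with serially diluted A2a antagonists plus rolipram, then stimulated 60 min with 3 μM NECA (final). After fixation and red-cell lysis, white cells were permeabilized and stained for phospho-CREB and CD8; pCREB in CD8+ T cells measured by flow cytometry.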

Chain of human Adenosine A1 receptor (P30542 whole entry): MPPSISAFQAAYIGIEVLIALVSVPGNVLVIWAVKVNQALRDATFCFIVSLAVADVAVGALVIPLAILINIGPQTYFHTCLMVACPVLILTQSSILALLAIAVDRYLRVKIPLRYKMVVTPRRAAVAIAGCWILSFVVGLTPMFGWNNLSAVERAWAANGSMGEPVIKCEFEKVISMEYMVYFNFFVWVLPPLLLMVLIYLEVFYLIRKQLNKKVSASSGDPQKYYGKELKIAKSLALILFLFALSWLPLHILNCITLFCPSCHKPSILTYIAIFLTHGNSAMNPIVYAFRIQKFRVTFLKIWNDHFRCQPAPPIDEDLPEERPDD

Row | Compound | Ki [1] | Ki [2] | Ki [3] | Ki [4] | IC50 [5] | IC50 [6]
1 | Cc1cc(-c2sc(NC(=O)N3CCC4(CC3)CNC4=O)nc2-c2cccc(C#N)c2)cc(C)n1 [Example 6.20, N-[4-(3-Cyanophenyl)-5-(2,6-dimethyl-4-pyridyl)thiazol-2-yl]-3-oxo-2,7-diazaspiro[3.5]nonane-7-carboxamide] | 53 nM | 0.14 nM | 1.9 nM | 287 nM | 1.8 nM | 20 nM
2 | Cc1cc(-c2sc(NC(=O)N3CCC4(CCNC4=O)CC3)nc2-c2cccc(C#N)c2)cc(C)n1 [Example 6.24, N-[4-(3-Cyanophenyl)-5-(2,6-dimethyl-4-pyridyl)thiazol-2-yl]-1-oxo-2,8-diazaspiro[4.5]decane-8-carboxamide] | 129 nM | 0.99 nM | 2.5 nM | 224 nM | 4.7 nM | 90 nM
3 | Cc1cc(-c2sc(NC(=O)N3CCC4(CCNC(=O)C4)CC3)nc2-c2cccc(C#N)c2)cc(C)n1 [Example 6.26, N-[4-(3-Cyanophenyl)-5-(2,6-dimethyl-4-pyridyl)thiazol-2-yl]-10-oxo-3,9-diazaspiro[5.5]undecane-3-carboxamide] | 86 nM | 0.79 nM | 3.8 nM | 302 nM | 3.2 nM | 80 nM
4 | Cc1cc(-c2sc(NC(=O)N3CCC4(CCOCC4)C3)nc2-c2cccc(C#N)c2)cc(C)n1 [Example 6.29, N-[4-(3-Cyanophenyl)-5-(2,6-dimethyl-4-pyridyl)thiazol-2-yl]-8-oxa-2-azaspiro[4.5]decane-2-carboxamide] | 228 nM | 0.95 nM | 3.4 nM | 635 nM | 5.3 nM | 510 nM
5 | Cc1cc(-c2sc(NC(=O)N3CCC(N4CCNC4=O)CC3)nc2-c2cccc(C#N)c2)cc(C)n1 [Example 6.30, N-[4-(3-Cyanophenyl)-5-(2,6-dimethyl-4-pyridyl)thiazol-2-yl]-4-(2-oxoimidazolidin-1-yl)piperidine-1-carboxamide] | 97 nM | 0.82 nM | 2 nM | 187 nM | 6.9 nM | 530 nM
6 | CN=S1(=O)CCN(C(=O)Nc2nc(-c3cccc(C#N)c3)c(-c3cc(C)nc(C)c3)s2)CC1 [Example 6.32, N-[4-(3-Cyanophenyl)-5-(2,6-dimethyl-4-pyridyl)thiazol-2-yl]-1-methylimino-1-oxo-1,4-thiazinane-4-carboxamide] | 109 nM | 0.83 nM | 5.4 nM | 719 nM | 8.6 nM | 230 nM
7 | Cc1cc(-c2sc(NC(=O)N3CCC4(CC3)CC(=O)N(C)C4)nc2-c2cccc(C#N)c2)cc(C)n1 [Example 6.38, N-[4-(3-Cyanophenyl)-5-(2,6-dimethyl-4-pyridyl)thiazol-2-yl]-2-methyl-3-oxo-2,8-diazaspiro[4.5]decane-8-carboxamide] | 170 nM | 0.83 nM | 3.6 nM | 278 nM | 6 nM | 580 nM
8 | Cc1cc(-c2sc(NC(=O)N3CCC4(CCC(=O)NC4)CC3)nc2-c2cccc(C#N)c2)cc(C)n1 [Example 6.40, N-[4-(3-Cyanophenyl)-5-(2,6-dimethyl-4-pyridyl)thiazol-2-yl]-3-oxo-2,9-diazaspiro[5.5]undecane-9-carboxamide] | 110 nM | 0.41 nM | 4.6 nM | 330 nM | 2.2 nM | 80 nM
9 | Cc1cc(-c2sc(NC(=O)N3CCC(C#N)(C(C)(C)O)CC3)nc2-c2cccc(C#N)c2)cc(C)n1 [Example 6.41, 4-Cyano-N-[4-(3-cyanophenyl)-5-(2,6-dimethyl-4-pyridyl)thiazol-2-yl]-4-(1-hydroxy-1-methyl-ethyl)piperidine-1-carboxamide] | 111 nM | 0.18 nM | 1.3 nM | 235 nM | 2.7 nM | 120 nM
10 | Cc1cc(-c2sc(NC(=O)N3CCN4C(=O)NCCC4C3)nc2-c2cccc(C#N)c2)cc(C)n1 (stereo not drawn) [Example 6.42, N-[4-(3-Cyanophenyl)-5-(2,6-dimethyl-4-pyridyl)thiazol-2-yl]-6-oxo-3,4,7,8,9,9a-hexahydro-1H-pyrazino[1,2-c]pyrimidine-2-carboxamide] | 44 nM | 0.39 nM | 9 nM | 438 nM | 5 nM | 130 nM
11 | Cc1cc(-c2sc(NC(=O)N3CC4(C3)CC(C)(O)C4)nc2-c2cccc(C#N)c2)cc(C)n1 [Example 6.44, N-[4-(3-Cyanophenyl)-5-(2,6-dimethyl-4-pyridyl)thiazol-2-yl]-6-hydroxy-6-methyl-2-azaspiro[3.3]heptane-2-carboxamide] | 151 nM | 0.4 nM | 2.4 nM | 299 nM | 3.1 nM | 100 nM
12 | Cc1cc(-c2sc(NC(=O)N3CCC4(CCC(=O)N4)CC3)nc2-c2cccc(C#N)c2)cc(C)n1 [Example 6.45, N-[4-(3-Cyanophenyl)-5-(2,6-dimethyl-4-pyridyl)thiazol-2-yl]-2-oxo-1,8-diazaspiro[4.5]decane-8-carboxamide] | 104 nM | 0.44 nM | 2 nM | 183 nM | 9.4 nM | 310 nM
13 | Cc1cc(-c2sc(NC(=O)N3CC[C@H](C(C)(C)O)C3)nc2-c2cccc(C#N)c2)cc(C)n1 [Example 6.48, (3S)-N-[4-(3-Cyanophenyl)-5-(2,6-dimethyl-4-pyridyl)thiazol-2-yl]-3-(1-hydroxy-1-methyl-ethyl)pyrrolidine-1-carboxamide] | 96 nM | 1.11 nM | 1.7 nM | 245 nM | 3.7 nM | 140 nM
14 | Cc1cc(-c2sc(NC(=O)N3CCC4(CCOC(=O)N4)CC3)nc2-c2cccc(C#N)c2)cc(C)n1 [Example 6.50, N-[4-(3-Cyanophenyl)-5-(2,6-dimethyl-4-pyridyl)thiazol-2-yl]-2-oxo-3-oxa-1,9-diazaspiro[5.5]undecane-9-carboxamide] | 136 nM | 1.63 nM | 3.4 nM | 472 nM | 3.6 nM | 190 nM
15 | Cc1cc(-c2sc(NC(=O)N3CC4(CCNC4=O)C3)nc2-c2cccc(C#N)c2)cc(C)n1 [Example 6.59, N-[4-(3-Cyanophenyl)-5-(2,6-dimethyl-4-pyridyl)thiazol-2-yl]-5-oxo-2,6-diazaspiro[3.4]octane-2-carboxamide] | 128 nM | 1.47 nM | 2.2 nM | 184 nM | 5.9 nM | 100 nM
16 | Cc1cc(-c2sc(NC(=O)N3CCN(C4COC4)CC3)nc2-c2cccc(C#N)c2)cc(C(F)(F)F)n1 [Example 6.61, N-[4-(3-Cyanophenyl)-5-[2-methyl-6-(trifluoromethyl)-4-pyridyl]thiazol-2-yl]-4-(oxetan-3-yl)piperazine-1-carboxamide] | 112 nM | 1.52 nM | 3.2 nM | 57 nM | 17.2 nM | 350 nM
17 | Cc1cc(-c2sc(NC(=O)N3CC(C#N)(CO)C3)nc2-c2cccc(C#N)c2)cc(C)n1 [Example 6.64, 3-Cyano-N-[4-(3-cyanophenyl)-5-(2,6-dimethyl-4-pyridyl)thiazol-2-yl]-3-(hydroxymethyl)azetidine-1-carboxamide] | 27 nM | 0.14 nM | 1.4 nM | 235 nM | 1.1 nM | 10 nM
18 | Cc1cc(-c2sc(NC(=O)N3CCN[C@H](C(C)(C)O)C3)nc2-c2cccc(C#N)c2)cc(C)n1 [Example 6.75, (3S)-N-[4-(3-Cyanophenyl)-5-(2,6-dimethyl-4-pyridyl)thiazol-2-yl]-3-(1-hydroxy-1-methyl-ethyl)piperazine-1-carboxamide] | 99 nM | 0.81 nM | 4.8 nM | 361 nM | 5.9 nM | 180 nM
19 | Cc1cc(-c2sc(NC(=O)N3CCOC[C@H]3CO)nc2-c2cccc(C#N)c2)cc(C)n1 [Example 6.88, (3R)-N-[4-(3-Cyanophenyl)-5-(2,6-dimethyl-4-pyridyl)thiazol-2-yl]-3-(hydroxymethyl)morpholine-4-carboxamide] | 65 nM | 1.9 nM | 8 nM | 385 nM | 7.8 nM | 480 nM
20 | Cc1cc(-c2sc(NC(=O)N3CCC4(CCC(=O)N4C)CC3)nc2-c2cccc(C#N)c2)cc(C)n1 [Example 6.94, N-[4-(3-Cyanophenyl)-5-(2,6-dimethyl-4-pyridyl)thiazol-2-yl]-1-methyl-2-oxo-1,8-diazaspiro[4.5]decane-8-carboxamide] | 407 nM | 5.63 nM | 11.3 nM | 719 nM | 10.5 nM | 190 nM
